The results in this text go back to patent US6821980B1, “Substituted 5-benzyl-2,4-diaminopyrimidines” (Basilea Pharmaceutica AG, priority 1999, dated 2004).

In brackets after ≈: the same amount, converted by molar mass. Like-named read-outs stand apart in the source and are kept apart here.

For assay [1], the target named is purified DHFR of strain 157/4696 of Staphylococcus aureus (Staphylococcus aureus, UniProt P13955). Put plainly: biochemical.
Assay [2] relates to Streptococcus pneumoniae 1/1. The assay is described as follows: MIC against Streptococcus pneumoniae 1/1. It counts as cell-based. The settings on record: Table 2, Streptococcus pneumoniae 1/1, trimethoprim- and penicillin-resistant, serotype 6, clinical isolate; for MIC: read-out: MIC Sp1/1.
Assay [3] has as its system Staphylococcus aureus 101. The assay is described as follows: MIC against Staphylococcus aureus 101. It counts as cell-based. The settings on record: Table 2, Staphylococcus aureus 101, MRSA- and trimethoprim-resistant, clinical isolate; for MIC: read-out: MIC Sa101.
For assay [4], the target named is T1, purified DHFR of strain Sp1/1 of Streptococcus pneumoniae (Streptococcus pneumoniae serotype 4, UniProt Q54801).
T1 sequence (Q54801 1-168 I100L): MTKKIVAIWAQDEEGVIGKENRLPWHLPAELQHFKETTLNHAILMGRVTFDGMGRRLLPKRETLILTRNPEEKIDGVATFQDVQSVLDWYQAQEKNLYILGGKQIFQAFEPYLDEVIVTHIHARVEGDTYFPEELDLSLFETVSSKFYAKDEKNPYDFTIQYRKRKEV
It counts as biochemical. The settings on record: Table 2; IC50 against purified DHFR of strain Sp1/1.

purified DHFR of strain 157/4696 of Staphylococcus aureus, sequence (P13955 whole entry): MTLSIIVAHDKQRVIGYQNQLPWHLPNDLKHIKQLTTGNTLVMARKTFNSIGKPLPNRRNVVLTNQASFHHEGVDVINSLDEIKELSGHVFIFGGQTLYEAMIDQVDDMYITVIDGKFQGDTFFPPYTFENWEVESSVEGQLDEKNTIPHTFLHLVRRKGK

`CCOc1cc(Cc2cnc(N)nc2N)cc(OS(=O)(=O)CC2CCCO2)c1-c1ccc(N)c(C)c1` (stereo not shown) [Example 42-c, Tetrahydrofuran-2-yl-methanesulphonic acid 4′-amino-4-(2,4-diamino-pyrimidin-5-ylmethyl)-6-ethoxy-3′-methyl-biphenyl-2-yl ester]: the IC50 is 300 nM in assay [1] and 6.3 nM in assay [4]. Also, the MIC in assay [2] worked out at 1 µg/mL (≈ 1.95 µM); in assay [3], 8 µg/mL (≈ 15.6 µM).
For `CCOc1cc(Cc2cnc(N)nc2N)cc(OS(=O)(=O)N(C)C)c1-c1ccc(SC)cc1` [Example 43-a, Dimethylsulphamic acid 4-(2,4-diamino-pyrimidin-5-ylmethyl)-6-ethoxy-4′-methylsulphanyl-biphenyl-2-yl ester], the IC50 in assay [1] is 320 nM; in assay [4], 6.7 nM. The figures for the MIC in assay [2] and in assay [3] were 4 µg/mL (≈ 8.17 µM) and 2 µg/mL (≈ 4.08 µM), respectively.
In the same order, the values of `CCOc1cc(Cc2cnc(N)nc2N)cc(OS(=O)(=O)N(C)C)c1-c1ccccc1` [Example 43-b, Dimethylsulphamic acid 4-(2,4-diamino-pyrimidin-5-ylmethyl)-6-ethoxy-biphenyl-2-yl ester] are 260 nM, 9.8 nM, 1 µg/mL (≈ 2.25 µM) and 1 µg/mL (≈ 2.25 µM).
With `CCOc1cc(Cc2cnc(N)nc2N)cc(OS(=O)(=O)N(C)C)c1-c1ccc(N)c(C#N)c1` [Example 43-c, Dimethylsulphamic acid 4′-amino-3′-cyano-4-(2,4-diamino-gvrimidin-5-ylmethyl)-6-ethoxy-biphenyl-2-yl ester], the figures for the IC50 in assay [1] and in assay [4] were 160 nM and 24 nM, respectively. For the same compound, the MIC in assay [2] and in assay [3] was 2 µg/mL (≈ 4.14 µM) throughout.
With `CCOc1cc(Cc2cnc(N)nc2N)cc(OS(=O)(=O)N(C)C)c1-c1ccc2[nH]ccc2c1` [Example 43-d, Dimethylsulphamic acid 5-(2,4-diamino-pyrimidin-5-ylmethyl)-3-ethoxy-2-(1H-indol-5-yl)-phenyl ester], the IC50 in assay [1] was 180 nM; in assay [4] it was 42 nM. Further, the MIC in assay [2] and in assay [3] was 1 µg/mL (≈ 2.07 µM) throughout.
For the compound `CCOc1cc(Cc2cnc(N)nc2N)cc(OCC)c1-c1cccc(NS(C)(=O)=O)c1` [Example 44-, N-[4′-(2,4-Diamino-pyrimidin-5-ylmethyl)-2′,6′-diethoxy-biphenyl-3-yl]-methanesulphonamide], the results for the IC50 in assay [1] and in assay [4] were 680 nM and 18 nM, respectively. For the same compound, the MIC in assay [2] was determined as 2 µg/mL (≈ 4.37 µM); in assay [3], 8 µg/mL (≈ 17.5 µM).
On the same counts, the results for `CCOc1cc(Cc2cnc(N)nc2N)cc(OCC)c1-c1ccc(OS(C)(=O)=O)cc1` [Example 45-, Methanesulphonic acid 4′-(2,4-diamino-pyrimidin-5-ylmethyl)-2′,6′-diethoxy-biphenyl-4-yl ester] are 2400 nM, 130 nM, 4 µg/mL (≈ 8.72 µM) and 8 µg/mL (≈ 17.4 µM).
Turning to `CCOc1cc(Cc2cnc(N)nc2N)cc(OCC)c1-c1ccc(OCC(N)=O)cc1` [Example 46-, 2-[4′-(2,4-Diamino-pylimidin-5-ylmethyl)-2′,6′-diethoxy-biphenyl-4-yloxy]-acetamide], the IC50 turned out to be 750 nM in assay [1] and 55 nM in assay [4]. For the same compound, the results for the MIC in assay [2] and in assay [3] were 2 µg/mL (≈ 4.57 µM) and 8 µg/mL (≈ 18.3 µM), respectively.
Take `CCOc1cc(Cc2cnc(N)nc2N)cc(OCC2(CCC#N)CC2)c1-c1ccc(O)cc1` [Example 47-, 3-{1-[4-(2,4-Diamino-pyrimidin-5-yjmethyl)-6-ethoxy-4′-hydroxy-biphenyl-2-loxymethyl]-cycloprropyl}-propionitrile]: the IC50 in assay [1] (Table 2, IC50 against purified DHFR of strain 157/4696 (highly trimethoprim-resistant; clinical isolate), read-out: DHFR Sa1) was 1200 nM; in assay [4], 10 nM. Besides, the “MIC Sp1/1” value in assay [2] is 2 µg/mL (≈ 4.35 µM). The “MIC Sa101” value in assay [3] turned out to be 8 µg/mL (≈ 17.4 µM).
As to `CCOc1cc(Cc2cnc(N)nc2N)cc(OCC(C)(C)CCC#N)c1-c1ccc(O)cc1` [Example 48-, 5-[4-(2,4-Diamino-pyrimidin-5-ylmethyl) 6-ethoy-4′-hydro-biPhenyl-2-xyloxy]-4,4-dimethyl-pentanenitrile], the IC50 in assay [1] stood at 750 nM; in assay [4] it was 30 nM. The MIC came to 2 µg/mL (≈ 4.33 µM) in assay [2] and 4 µg/mL (≈ 8.67 µM) in assay [3].
